Results: US12612366B2, “Salts and crystal forms of omecamtiv mecarbil” (Amgen Inc., priority 2018, dated 2026)
Counter-ions that a name gives are not always drawn.

Tests used:
[1] = Moisture sorption (dynamic vapor sorption, DVS); assay type: physicochemical; conditions: 25° C.; for Vapor sorption behaviour (hygroscopicity, form conversion): DVS 0-95% RH
Method: Moisture balance was collected using a dynamic vapor sorption (DVS) analyzer. Relative humidity (RH) was set to 0, 5, 15, 25, 35, 45, 55, 65, 75, 85 and 95% RH for 2 sorption/desorption cycles at 25° C. Equilibration criteria was set at 0.001% weight. Approximately 10 mg of sample was used.

[2] = Solubility: excess solid in water, pH 1.0 or pH 4.5 buffer, filtrate analyzed by HPLC-UV; assay type: physicochemical; conditions: for pH given with the water solubility: water solubility sample; for Water solubility / Solubility in pH 1 buffer / Solubility in pH 4.5 buffer: room temperature; for Water solubility: suspension dispersed for at least 24, filtered, HPLC-UV, pH given in brackets
Method: An excess of solid was added to water, pH 1.0 or pH 4.5 buffer to produce a suspension and dispersed for at least 24 at room temperature. Suspensions were filtered. Filtrate was analyzed by HPLC-UV and compared against a standard curve to determine the solution concentration of the crystal form.

Compound: COC(=O)N1CCN(Cc2cccc(NC(=O)Nc3ccc(C)nc3)c2F)CC1 [Amorphous hydrochloride salt, omecamtiv mecarbil]
- Vapor sorption behaviour (hygroscopicity, form conversion) [1]: hygroscopic and converts to the crystalline bis-hydrochloride monohydrate Form A
- Vapor sorption behaviour (hygroscopicity, form conversion) ([1]; listed as amorphous hydrochloride salt): weight loss due to crystallization to Form A up to 95% RH
- Moisture sorption weight gain ([1]; by 50% RH): ~11%

Compound: COC(=O)N1CCN(Cc2cccc(NC(=O)Nc3ccc(C)nc3)c2F)CC1 [Bis-fumarate crystalline salt form C, omecamtiv mecarbil]
- pH given with the water solubility [2]: 3.1
- Water solubility [2]: 13700 µg/mL

Compound: COC(=O)N1CCN(Cc2cccc(NC(=O)Nc3ccc(C)nc3)c2F)CC1 [Bis-malonate crystalline salt, omecamtiv mecarbil]
- pH given with the water solubility [2]: 3.69
- Water solubility [2]: greater than 62 mg/mL

Compound: COC(=O)N1CCN(Cc2cccc(NC(=O)Nc3ccc(C)nc3)c2F)CC1 [Bis-mesylate crystalline salt form B, omecamtiv mecarbil]
- Solubility in pH 1 buffer [2]: greater than 23 mg/mL
- Solubility in pH 4.5 buffer [2]: greater than 23 mg/mL

Compound: COC(=O)N1CCN(Cc2cccc(NC(=O)Nc3ccc(C)nc3)c2F)CC1 [Bis-naphthalate-2-sulfonate crystalline salt] [omecamtiv mecarbil]
- Solubility in pH 1 buffer [2]: greater than 10 mg/mL
- Solubility in pH 4.5 buffer [2]: greater than 10 mg/mL

Compound: COC(=O)N1CCN(Cc2cccc(NC(=O)Nc3ccc(C)nc3)c2F)CC1 [Bis-sulfate crystalline salt form A, omecamtiv mecarbil]
- pH given with the water solubility [2]: 1.5
- Water solubility [2]: 16000 µg/mL

Compound: COC(=O)N1CCN(Cc2cccc(NC(=O)Nc3ccc(C)nc3)c2F)CC1 [Bis-sulfate crystalline salt form B, omecamtiv mecarbil]
- pH given with the water solubility [2]: 3.5
- Water solubility [2]: 9000 µg/mL

Compound: COC(=O)N1CCN(Cc2cccc(NC(=O)Nc3ccc(C)nc3)c2F)CC1 [Bis-tartrate crystalline salt form A, omecamtiv mecarbil]
- pH given with the water solubility [2]: 3.28
- Water solubility [2]: > 53000 µg/mL

Compound: COC(=O)N1CCN(Cc2cccc(NC(=O)Nc3ccc(C)nc3)c2F)CC1 [Hemi-succinate crystalline salt, omecamtiv mecarbil]
- pH given with the water solubility [2]: 4.7
- Water solubility [2]: 7400 µg/mL

Compound: COC(=O)N1CCN(Cc2cccc(NC(=O)Nc3ccc(C)nc3)c2F)CC1 [Mesylate crystalline salt form A, omecamtiv mecarbil]
- pH given with the water solubility [2]: 1.39
- Water solubility [2]: greater than 72 mg/mL

Compound: COC(=O)N1CCN(Cc2cccc(NC(=O)Nc3ccc(C)nc3)c2F)CC1 [Mono-napadisylate crystalline salt, omecamtiv mecarbil]
- pH given with the water solubility [2]: 2.35
- Water solubility [2]: 300 µg/mL

Compound: COC(=O)N1CCN(Cc2cccc(NC(=O)Nc3ccc(C)nc3)c2F)CC1 [bis-maleate crystalline salt form A, omecamtiv mecarbil]
- pH given with the water solubility [2]: 3.7
- Water solubility [2]: 3800 µg/mL
